Assay results published in patent publication US5192664A, “Parathyroid hypertensive factor, antibodies and uses thereof” (Pang; Peter K. T., priority 1990, dated 1993).

System: Blood Pressure in SHR
Assay: Feeding of nifedipine and dietary calcium to SHR rats for 8 weeks, mean blood pressure
Format: in vivo, rat
Details: for Blood Pressure in SHR: nifedipine 0 mg/kg food, 8 weeks feeding
Method: Male rats of the SHR strain, obtained from Harlan Sprague-Dawley, 12 weeks old, were divided into groups of 12 or 24, and were fed prepared diets containing 0.2%, 0.4% and 0.8% elemental calcium, respectively. […] Distilled water was available ad lib. Feeding was continued for 8 weeks and the mean blood pressure of each animal was determined at the end of that time.

[Ca] [Calcium]
decrease in blood pressure (4 times the amount of ordinary dietary calcium, no nifedipine): measurable, but small | Blood Pressure in SHR (dietary calcium 0.4%): 164 ± 6 mm Hg | Blood Pressure in SHR (dietary calcium 0.8%): 169 ± 6 mm Hg
